Measured values: PubChem BioAssay (NCI)
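Five concentrations, 48 hours, 96-well plates. GI50 = concentration required for 50% inhibition of growth. At the TGI there is no net growth.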

Key:
Assay in all cases: NCI anticancer screen, dose series, 48 h
SR leukemia = test system: SR leukemia
HOP-92 NSCLC = test system: HOP-92 NSCLC
IGROV1 ovarian = test system: IGROV1 ovarian
SF-539 CNS = test system: SF-539 CNS
MCF7 breast = test system: MCF7 breast
RXF 393 renal = test system: RXF 393 renal
KM12 colon = test system: KM12 colon
SK-MEL-2 melanoma = test system: SK-MEL-2 melanoma
HCC-2998 colon = test system: HCC-2998 colon

CCCCCCCCCCCCCCCCCCOCC(O)COP(=O)(O)OCC1OC(n2cc(F)c(=O)[nH]c2=O)CC1O (configuration not stated)
TGI (SR leukemia): 22.6 µM | TGI (HOP-92 NSCLC): 24.2 µM | TGI (IGROV1 ovarian): 26.8 µM | TGI (SF-539 CNS): 12.4 µM | TGI (MCF7 breast): 48.3 µM | TGI (RXF 393 renal): 29 µM | TGI (KM12 colon): 51 µM | TGI (SK-MEL-2 melanoma): 43.2 µM | TGI (HCC-2998 colon): 2.92 µM

CC(C)n1c(=O)n(-c2ccccc2)n(C(C)(C)C)c1=O
TGI (SR leukemia): > 100 µM | TGI (HOP-92 NSCLC): > 100 µM | TGI (IGROV1 ovarian): > 100 µM | TGI (SF-539 CNS): > 100 µM | TGI (MCF7 breast): > 100 µM | TGI (RXF 393 renal): > 100 µM | TGI (KM12 colon): > 100 µM | TGI (SK-MEL-2 melanoma): > 100 µM | TGI (HCC-2998 colon): > 100 µM

O=C(Nc1cccc(-c2cn3ccccc3n2)c1)c1ccncc1
TGI (SR leukemia): 71.7 µM | TGI (HOP-92 NSCLC): > 100 µM | TGI (IGROV1 ovarian): > 100 µM | TGI (SF-539 CNS): > 100 µM | TGI (MCF7 breast): > 100 µM | TGI (RXF 393 renal): > 100 µM | TGI (KM12 colon): > 100 µM | TGI (SK-MEL-2 melanoma): 46.5 µM | TGI (HCC-2998 colon): > 100 µM

COC(OC)C(O)C1OC=CC1n1cnc2c(N)ncnc21 (configuration not stated)
TGI (SR leukemia): > 100 µM | TGI (HOP-92 NSCLC): > 100 µM | TGI (IGROV1 ovarian): > 100 µM | TGI (SF-539 CNS): > 100 µM | TGI (MCF7 breast): > 100 µM | TGI (RXF 393 renal): > 100 µM | TGI (KM12 colon): > 100 µM | TGI (SK-MEL-2 melanoma): > 100 µM | TGI (HCC-2998 colon): > 100 µM

Cc1ccc(O)c(C2=NNC(c3cccc(Br)c3)C2)c1 (configuration not stated)
TGI (SR leukemia): > 100 µM | TGI (HOP-92 NSCLC): 92.7 µM | TGI (IGROV1 ovarian): > 100 µM | TGI (SF-539 CNS): > 100 µM | TGI (MCF7 breast): > 100 µM | TGI (RXF 393 renal): > 100 µM | TGI (KM12 colon): > 100 µM | TGI (SK-MEL-2 melanoma): > 100 µM | TGI (HCC-2998 colon): > 100 µM

N#CCCN(CCCN(C(=O)Nc1ccccc1)c1ccccc1)C(=O)Nc1ccccc1
TGI (SR leukemia): > 100 µM | TGI (HOP-92 NSCLC): > 100 µM | TGI (IGROV1 ovarian): > 100 µM | TGI (SF-539 CNS): > 100 µM | TGI (MCF7 breast): > 100 µM | TGI (RXF 393 renal): > 100 µM | TGI (KM12 colon): > 100 µM | TGI (SK-MEL-2 melanoma): > 100 µM | TGI (HCC-2998 colon): > 100 µM

CC(C)(C)OC(=O)N1C(OP(=O)(Oc2ccccc2)Oc2ccccc2)=COc2cccnc21
TGI (SR leukemia): 82.9 µM | TGI (HOP-92 NSCLC): 92.5 µM | TGI (IGROV1 ovarian): > 100 µM | TGI (SF-539 CNS): > 100 µM | TGI (MCF7 breast): > 100 µM | TGI (RXF 393 renal): > 100 µM | TGI (KM12 colon): > 100 µM | TGI (SK-MEL-2 melanoma): 55.7 µM | TGI (HCC-2998 colon): > 100 µM

CC(C)(C)N1Cc2ccccc2/C(=C/Sc2ccccc2)C1=O
TGI (SR leukemia): > 39.4 µM | TGI (HOP-92 NSCLC): 27.8 µM | TGI (IGROV1 ovarian): 24 µM | TGI (SF-539 CNS): 24.3 µM | TGI (MCF7 breast): 24.3 µM | TGI (RXF 393 renal): 34 µM | TGI (KM12 colon): 31.4 µM | TGI (SK-MEL-2 melanoma): 31.4 µM | TGI (HCC-2998 colon): 34.4 µM

COC1/C=C/C(C)C(C(C)C(OC)C(C)CCC(=O)C(C)C(CCC(=O)O)OC)OC(=O)/C=C/C=C(\C)CC(OC)CC2=CC(=O)O[C@@H](C(C)C(OC)CC(OC)/C=C/C(C)C(OC)C1)[C@H]2O (some centres not stated)
TGI (SR leukemia): > 4.14 µM | TGI (HOP-92 NSCLC): 1.36 µM | TGI (IGROV1 ovarian): 0.948 µM | TGI (SF-539 CNS): > 5 µM | TGI (MCF7 breast): > 5 µM | TGI (RXF 393 renal): 1.49 µM | TGI (KM12 colon): > 5 µM | TGI (SK-MEL-2 melanoma): 1.89 µM | TGI (HCC-2998 colon): > 5 µM

N#CCc1nc(C#N)c(N)o1
TGI (SR leukemia): > 100 µM | TGI (HOP-92 NSCLC): > 100 µM | TGI (IGROV1 ovarian): > 100 µM | TGI (SF-539 CNS): > 100 µM | TGI (MCF7 breast): > 100 µM | TGI (RXF 393 renal): > 100 µM | TGI (KM12 colon): > 100 µM | TGI (SK-MEL-2 melanoma): > 100 µM | TGI (HCC-2998 colon): > 100 µM

COc1cccc(-c2nc3sccn3c2-c2ccnc(NCCNC(=O)Nc3cccc(C(F)(F)F)c3)n2)c1
GI50 (SR leukemia): 3.75 µM | TGI (SR leukemia): 29.7 µM | GI50 (HOP-92 NSCLC): 0.853 µM | TGI (HOP-92 NSCLC): 9.47 µM | GI50 (IGROV1 ovarian): 3.32 µM | TGI (IGROV1 ovarian): 21.8 µM | GI50 (SF-539 CNS): 3.83 µM | TGI (SF-539 CNS): 17.1 µM | GI50 (MCF7 breast): 3.12 µM | TGI (MCF7 breast): 13.3 µM | GI50 (RXF 393 renal): 1.78 µM | TGI (RXF 393 renal): 3.65 µM | GI50 (KM12 colon): 3.36 µM | TGI (KM12 colon): 10.1 µM | GI50 (SK-MEL-2 melanoma): 2.03 µM | TGI (SK-MEL-2 melanoma): 4.46 µM | GI50 (HCC-2998 colon): 3.75 µM | TGI (HCC-2998 colon): 18.7 µM

CSCCC(NC(=O)OC(C)(C)C)C(=O)NCCNc1ccc(NCCNC(=O)C(CCSC)NC(=O)OC(C)(C)C)c2c1C(=O)c1ccccc1C2=O (configuration not stated)
TGI (SR leukemia): 11.3 µM | TGI (HOP-92 NSCLC): 10.1 µM | TGI (IGROV1 ovarian): 9.85 µM | TGI (SF-539 CNS): 6.96 µM | TGI (MCF7 breast): 19.2 µM | TGI (RXF 393 renal): 52.8 µM | TGI (KM12 colon): > 63.6 µM | TGI (SK-MEL-2 melanoma): 35.9 µM | TGI (HCC-2998 colon): 5.99 µM

Cc1ccc(S(=O)(=O)N2CCN(CCN(C)CCN3CCN(S(=O)(=O)c4ccc(C)cc4)CC3)CC2)cc1
TGI (SR leukemia): 36.3 µM | TGI (HOP-92 NSCLC): 35.6 µM | TGI (IGROV1 ovarian): 33.6 µM | TGI (SF-539 CNS): 30.3 µM | TGI (MCF7 breast): 32.8 µM | TGI (RXF 393 renal): 27.8 µM | TGI (KM12 colon): 31.6 µM | TGI (SK-MEL-2 melanoma): 33.6 µM | TGI (HCC-2998 colon): 29.4 µM

Cc1cc(S(=O)(=O)Nc2nc(N)nc(N3N=CCC3C)n2)c(S)cc1Cl (configuration not stated)
TGI (SR leukemia): > 10 µM | TGI (HOP-92 NSCLC): > 10 µM | TGI (IGROV1 ovarian): > 10 µM | TGI (SF-539 CNS): > 10 µM | TGI (MCF7 breast): > 10 µM | TGI (RXF 393 renal): > 10 µM | TGI (KM12 colon): > 10 µM | TGI (SK-MEL-2 melanoma): > 10 µM | TGI (HCC-2998 colon): > 10 µM

Cc1cc(S(=O)(=O)Nc2nnc3cc(C(F)(F)F)cc(C)n23)c(S)cc1Cl
TGI (SR leukemia): > 100 µM | TGI (HOP-92 NSCLC): > 100 µM | TGI (IGROV1 ovarian): > 100 µM | TGI (SF-539 CNS): > 96.6 µM | TGI (MCF7 breast): > 31.6 µM | TGI (RXF 393 renal): > 100 µM | TGI (KM12 colon): > 100 µM | TGI (SK-MEL-2 melanoma): > 100 µM | TGI (HCC-2998 colon): > 70.1 µM

CCOC(=O)C(Cc1ccccc1)(Cc1ccc(O)cn1)NC(=O)c1ccccc1 (configuration not stated)
TGI (SR leukemia): > 100 µM | TGI (HOP-92 NSCLC): 59.1 µM | TGI (IGROV1 ovarian): 96.7 µM | TGI (SF-539 CNS): 60.6 µM | TGI (MCF7 breast): 51.5 µM | TGI (RXF 393 renal): > 100 µM | TGI (KM12 colon): 54.8 µM | TGI (SK-MEL-2 melanoma): 43.9 µM | TGI (HCC-2998 colon): > 100 µM

CC#CC(O)(C(=O)OC1CCCN(C)C1)C1=CC=CCC1 (configuration not stated)
TGI (SR leukemia): > 100 µM | TGI (HOP-92 NSCLC): > 100 µM | TGI (IGROV1 ovarian): > 100 µM | TGI (SF-539 CNS): > 100 µM | TGI (MCF7 breast): > 100 µM | TGI (RXF 393 renal): > 100 µM | TGI (KM12 colon): > 100 µM | TGI (SK-MEL-2 melanoma): > 100 µM | TGI (HCC-2998 colon): > 100 µM
